# Results from article PMC9898755 (The Journal of Biological Chemistry, 2023).
# Tests used:
# Sec14^V155F = target: T1, Sec14^V155F (Saccharomyces cerevisiae, UniProt P24280, V155F); experiment: [3H]-PtdIns-transfer assay, […] PITP, […] himbacine, […] inhibition; type: biochemical; settings: read-out: % inhibition at 20 μM
# T1 sequence (P24280 2-304 V155F): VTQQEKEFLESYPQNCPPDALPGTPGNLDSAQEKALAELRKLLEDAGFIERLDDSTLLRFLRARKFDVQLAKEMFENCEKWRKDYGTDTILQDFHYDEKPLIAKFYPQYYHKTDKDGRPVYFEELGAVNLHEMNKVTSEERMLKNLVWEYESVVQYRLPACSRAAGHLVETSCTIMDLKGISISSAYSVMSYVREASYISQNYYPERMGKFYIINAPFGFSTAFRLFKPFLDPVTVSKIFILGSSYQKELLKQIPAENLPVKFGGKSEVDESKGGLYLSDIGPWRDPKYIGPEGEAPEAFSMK
# Sec14^V154F = target: T2, Sec14^V154F (Saccharomyces cerevisiae, UniProt P24280, V154F); experiment: as above; type: biochemical; settings: read-out: % inhibition at 20 μM
# T2 sequence (P24280 2-304 V154F): T1 sequence (P24280 2-304 V155F)
structure (smiles),measurement,setting,value
C[C@@H]1OC(=O)[C@H]2C[C@H]3CCCC[C@@H]3[C@@H](/C=C/[C@H]3CCC[C@H](C)N3C)[C@@H]12 [himbacine],inhibition at 20 µM,Sec14^V155F,73 ± 2.1%
same,inhibition at 20 µM,Sec14^V154F,71 ± 1.2%
